Patent US11045486B2, “Therapeutic method and therapeutic agent for atopic dermatitis in animals” (priority 2015, dated 2021)
“Also recorded” adds a separate entry of the source.

How the values were obtained:
canine atopic dermatitis [1] = experiment: CADLI index (skin lesion score) in dogs with atopic dermatitis before and after drug administration; assay type: in vivo, dog; details: for effect of improving clinical symptoms of canine atopic dermatitis: 127 dogs, single agents 30 days each, combination up to 60 days, compared with before administration; for CADLI score, average value and standard error / CADLI score, average value (standard error): 30-days administration; for CADLI score, average value (standard error): all 127 dogs, oral with meals every 12 hours (RXM 5 mg/kg, PTX 25 mg/kg), prior to administration 33.17
Source text: The CADLI index used in the present specification is an index representing the skin condition of atopic dermatitis, and the skin condition of the five parts of the body is scored by estimating erythema, scratch, erosion, alopecia, lichenification, hyperpigmentation (Non-Patent Document 14). Therefore, the highest point is 50 points, and closer to 50 points the skin inflammation is becoming more severe. […] This figure decreased to 12.04±1.11 after 30 days of dosing and 6.51±1.51 after 60 days, and it was remarkable for all 127 cases (100%). To be able to obtain remission of symptoms with high probability. […] Target animals: For five years from 2010 to 2015, at Gotofu Animal Hospital (1-1-3, […], Fukuoka City, Fukuoka Prefecture), among dogs diagnosed as atopic dermatitis of dogs by diagnostic criteria announced by Dr. Favrot in 2010 (non patent literature 15), the examinations were conducted for 127 dogs for which the consent and cooperation of treatment were obtained from the family and whose sum of SQK were larger than the sum of SLK of the 5 parts, whose SLK and SQK value were calculated for 5 parts of the neck, the fossa, the back, the forearm, and the lower leg. As content of implementation items, in all 127 cases, roxithromycin was administered as a single agent for 30 days, and pentoxifylline was administered as a single agent for the next 30 days. During the last 60 days, roxithromycin and pentoxifylline were administered in combination. The constituent of the targeted dog type is as shown in (Table 1). The constituent of the gender was 57 males (35 castrated with 35 male), 70 females (35 contraceptives already) (Table 1). Methods: In all 127 cases, 5 mg/kg of roxithromycin alone was orally administered with meals every 12 hours for the first 30 days. For the next 30 days, pentoxifylline alone was orally administered at 25 mg/kg with meals every 12 hours. For the next 60 days, 5 mg/kg of roxithromycin and 25 mg/kg of pentoxifylline were orally administered simultaneously with meals every 12 hours. After that, administration of roxithromycin and pentoxifylline was discontinued and a follow-up study was conducted for 30 days. For all treatment periods, meals were allowed to feed freely without restriction. Also, shampoo was carried out at home once a week. Local corticosteroid therapy was performed at any time as long as there was a strong itching lesion After measurement, roxithromycin (RXM) was administered as a single agent for 30 days. After administration, CADLI index was measured to ascertain the skin condition, and it was judged whether roxithromycin has the ability to improve atopic dermatitis by comparing the change of numerical values before and after medication. Similarly, for pentoxifylline (PTX), it was estimated whether pentoxifylline has the effect of improving canine atopic dermatitis by measuring the CADLI index as an index and comparing the values before and after administration. Finally, for administration of roxithromycin and pentoxifylline in combination, the CADLI index was measured on the 30th and 60th days of administration, respectively, and the effect of the drug was evaluated by comparing the values.

canine atopic dermatitis [2] = details: 7 out of 37 dogs with canine atopic dermatitis; cited from earlier work
[3] = breed West Highland white terrier

SMILES: CC[C@H]1OC(=O)[C@H](C)[C@@H](O[C@H]2C[C@@](C)(OC)[C@@H](O)[C@H](C)O2)[C@H](C)[C@@H](O[C@@H]2O[C@H](C)C[C@H](N(C)C)[C@H]2O)[C@](C)(O)C[C@@H](C)/C(=N\OCOCCOC)[C@H](C)[C@@H](O)[C@]1(C)O [RXM, Roxithromycin]
- effect of improving clinical symptoms of canine atopic dermatitis (canine atopic dermatitis [1]): did not seem to have sufficient therapeutic effect to improve atopic dermatitis in dogs; also recorded: no effect of improving canine atopic dermatitis
- CADLI score, average value and standard error (canine atopic dermatitis [1]; age 4 years-6 years of age): 32.75 ± 2.82
- CADLI score, average value and standard error (canine atopic dermatitis [1]; age 7 years-9 years of age): 33.55 ± 3.54
- CADLI score, average value and standard error (canine atopic dermatitis [1]; age 10 years-12 years of age): 35.18 ± 2.89
- CADLI score, average value and standard error (canine atopic dermatitis [1]; age Over 13 years of age): 32.32 ± 4.07
- CADLI score, average value and standard error (canine atopic dermatitis [1]; age Under 3 years of age): 34.72 ± 4.91
- CADLI score, average value (standard error) (canine atopic dermatitis [1]): 33.64
- CADLI score, average value (standard error) (canine atopic dermatitis [1]; listed as roxithromycin): 33.64±1.51
- CADLI score, average value and standard error (canine atopic dermatitis [1]; breed Chihuahua): 31.67 ± 9.18
- CADLI score, average value and standard error (canine atopic dermatitis [1]; breed Miniature dachschund): 29.00 ± 4.24
- CADLI score, average value and standard error (canine atopic dermatitis [1]; breed Mongrel): 36.57 ± 6.25
- CADLI score, average value and standard error (canine atopic dermatitis [1]; breed Others): 36.16 ± 3.50
- CADLI score, average value and standard error (canine atopic dermatitis [1]; breed Pug): 35.30 ± 3.63
- CADLI score, average value and standard error (canine atopic dermatitis [1]; breed Shiba): 35.60 ± 4.44
- CADLI score, average value and standard error (canine atopic dermatitis [1]; breed Shih Tzu): 33.39 ± 2.88
- CADLI score, average value and standard error (canine atopic dermatitis [1]; breed Toy Poodle): 37.57 ± 5.51
- CADLI score, average value and standard error (canine atopic dermatitis [1]; breed Welsh Corgi): 31.50 ± 6.98
- CADLI score, average value and standard error (canine atopic dermatitis [1]; [3]): 35.00 ± 8.08
- CADLI score, average value and standard error (canine atopic dermatitis [1]; breed Yorkshire Terrier): 23.00 ± 8.56
- CADLI score, average value and standard error (canine atopic dermatitis [1]; sex Castrated male): 33.23 ± 2.97
- CADLI score, average value and standard error (canine atopic dermatitis [1]; sex Female): 32.71 ± 2.96
- CADLI score, average value and standard error (canine atopic dermatitis [1]; sex Male): 36.41 ± 3.28
- CADLI score, average value and standard error (canine atopic dermatitis [1]; sex Spayed female): 33.23 ± 3.01

SMILES: CC(=O)CCCCn1c(=O)c2c(ncn2C)n(C)c1=O [PTX, Pentoxifylline]
- effect of improving clinical symptoms of canine atopic dermatitis (canine atopic dermatitis [1]): no therapeutic effect to improve atopic dermatitis in dogs; also recorded: unable to confirm the effect of improving the symptoms of atopic dermatitis in dogs
- CADLI score, average value and standard error (canine atopic dermatitis [1]; age 4 years-6 years of age): 32.38 ± 3.01
- CADLI score, average value and standard error (canine atopic dermatitis [1]; age 7 years-9 years of age): 32.95 ± 3.47
- CADLI score, average value and standard error (canine atopic dermatitis [1]; age 10 years-12 years of age): 34.61 ± 2.84
- CADLI score, average value and standard error (canine atopic dermatitis [1]; age Over 13 years of age): 31.68 ± 3.93
- CADLI score, average value and standard error (canine atopic dermatitis [1]; age Under 3 years of age): 33.94 ± 4.74
- CADLI score, average value (standard error) (canine atopic dermatitis [1]): 33.09
- CADLI score, average value (standard error) (canine atopic dermatitis [1]; listed as pentoxifylline): 33.09±1.52
- CADLI score, average value and standard error (canine atopic dermatitis [1]; breed Chihuahua): 31.00 ± 9.01
- CADLI score, average value and standard error (canine atopic dermatitis [1]; breed Miniature dachschund): 28.64 ± 4.11
- CADLI score, average value and standard error (canine atopic dermatitis [1]; breed Mongrel): 36.00 ± 6.08
- CADLI score, average value and standard error (canine atopic dermatitis [1]; breed Others): 35.26 ± 3.66
- CADLI score, average value and standard error (canine atopic dermatitis [1]; breed Pug): 35.60 ± 3.48
- CADLI score, average value and standard error (canine atopic dermatitis [1]; breed Shiba): 34.93 ± 4.45
- CADLI score, average value and standard error (canine atopic dermatitis [1]; breed Shih Tzu): 32.94 ± 3.09
- CADLI score, average value and standard error (canine atopic dermatitis [1]; breed Toy Poodle): 36.86 ± 5.42
- CADLI score, average value and standard error (canine atopic dermatitis [1]; breed Welsh Corgi): 31.50 ± 6.11
- CADLI score, average value and standard error (canine atopic dermatitis [1]; [3]): 34.40 ± 7.91
- CADLI score, average value and standard error (canine atopic dermatitis [1]; breed Yorkshire Terrier): 22.29 ± 7.94
- CADLI score, average value and standard error (canine atopic dermatitis [1]; sex Castrated male): 32.63 ± 2.87
- CADLI score, average value and standard error (canine atopic dermatitis [1]; sex Female): 32.43 ± 3.13
- CADLI score, average value and standard error (canine atopic dermatitis [1]; sex Male): 35.41 ± 3.40
- CADLI score, average value and standard error (canine atopic dermatitis [1]; sex Spayed female): 32.74 ± 2.98
- patients in which single administration of pentoxifylline was effective (canine atopic dermatitis [2]): 19%
